Measured values reported in ChEMBL document CHEMBL5154740, “Novel Aurora A and Protein Kinase C (α, β1, β2, and θ) Multitarget Inhibitors: Impact of Selenium Atoms on the Potency and Selectivity” (J Med Chem, 2022).
pIC50: −log10 of the molar value.

Key:
Homo sapiens = species: Homo sapiens; experiment: Inhibition of CDK1/Cyclin B (unknown origin) at 50 nM by Z'LYTE screening method relative to control
[1] = target: T1, Serine/threonine-protein kinase D1 (Homo sapiens) (UniProt Q15139); experiment: Inhibition of PKCmu (unknown origin) at 50 nM by Z'LYTE screening method relative to control
T1 sequence (whole entry): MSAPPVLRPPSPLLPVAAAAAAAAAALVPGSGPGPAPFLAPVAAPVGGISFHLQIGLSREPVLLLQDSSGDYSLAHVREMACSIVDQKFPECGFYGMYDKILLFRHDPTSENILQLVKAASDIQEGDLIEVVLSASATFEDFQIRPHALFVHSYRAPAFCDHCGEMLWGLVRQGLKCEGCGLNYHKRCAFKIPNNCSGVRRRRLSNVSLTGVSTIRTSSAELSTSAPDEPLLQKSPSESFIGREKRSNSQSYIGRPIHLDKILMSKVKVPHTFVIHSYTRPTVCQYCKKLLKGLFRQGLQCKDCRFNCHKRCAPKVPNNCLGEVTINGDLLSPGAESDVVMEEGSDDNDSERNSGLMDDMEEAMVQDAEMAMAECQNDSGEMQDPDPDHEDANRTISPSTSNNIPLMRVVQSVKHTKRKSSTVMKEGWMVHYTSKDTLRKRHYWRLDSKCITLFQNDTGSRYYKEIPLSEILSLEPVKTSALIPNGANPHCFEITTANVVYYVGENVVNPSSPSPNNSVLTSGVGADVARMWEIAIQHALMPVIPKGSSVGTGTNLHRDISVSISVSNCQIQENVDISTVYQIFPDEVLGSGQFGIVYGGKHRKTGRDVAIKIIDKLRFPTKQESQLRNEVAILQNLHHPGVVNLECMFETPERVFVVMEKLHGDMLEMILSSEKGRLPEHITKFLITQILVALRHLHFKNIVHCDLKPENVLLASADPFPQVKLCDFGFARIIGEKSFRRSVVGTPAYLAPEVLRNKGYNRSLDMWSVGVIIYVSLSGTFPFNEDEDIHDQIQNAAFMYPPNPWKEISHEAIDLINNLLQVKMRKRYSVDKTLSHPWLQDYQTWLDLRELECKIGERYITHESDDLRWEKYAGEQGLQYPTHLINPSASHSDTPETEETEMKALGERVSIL

MDA-MB-231 = experiment: Cytotoxicity against human MDA-MB-231/M cells assessed as reduction in cell viability incubated for 96 hrs by MTT assay; type: functional, cell-based; conditions: MDA-MB-231, 96 h
[2] = target: ALK tyrosine kinase receptor (Homo sapiens) (UniProt Q9UM73); experiment: Inhibition of ALK (unknown origin) at 50 nM by Z'LYTE screening method relative to control
[3] = target: Receptor tyrosine-protein kinase erbB-2 (Homo sapiens) (UniProt P04626); experiment: Inhibition of ERBB2 (unknown origin) at 50 nM by Z'LYTE screening method relative to control
[4] = target: CDK1/Cyclin A (Homo sapiens) (UniProt P06493+P20248); experiment: Inhibition of CDK1/CyclinA (unknown origin) at 50 nM by Z'LYTE screening method relative to control; type: protein-complex assay
CDK1/Cyclin A (Homo sapiens), sequence (P06493 whole entry, looked up): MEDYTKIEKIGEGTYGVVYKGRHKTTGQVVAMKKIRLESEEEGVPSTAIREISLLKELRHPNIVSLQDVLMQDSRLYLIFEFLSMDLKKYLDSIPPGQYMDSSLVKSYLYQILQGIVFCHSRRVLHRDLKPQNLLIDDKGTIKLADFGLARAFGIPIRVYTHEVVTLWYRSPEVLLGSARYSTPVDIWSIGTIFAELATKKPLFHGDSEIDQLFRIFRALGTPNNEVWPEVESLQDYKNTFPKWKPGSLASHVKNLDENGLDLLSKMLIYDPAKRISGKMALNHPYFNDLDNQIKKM
CDK1/Cyclin A (Homo sapiens), sequence (P20248 whole entry, looked up): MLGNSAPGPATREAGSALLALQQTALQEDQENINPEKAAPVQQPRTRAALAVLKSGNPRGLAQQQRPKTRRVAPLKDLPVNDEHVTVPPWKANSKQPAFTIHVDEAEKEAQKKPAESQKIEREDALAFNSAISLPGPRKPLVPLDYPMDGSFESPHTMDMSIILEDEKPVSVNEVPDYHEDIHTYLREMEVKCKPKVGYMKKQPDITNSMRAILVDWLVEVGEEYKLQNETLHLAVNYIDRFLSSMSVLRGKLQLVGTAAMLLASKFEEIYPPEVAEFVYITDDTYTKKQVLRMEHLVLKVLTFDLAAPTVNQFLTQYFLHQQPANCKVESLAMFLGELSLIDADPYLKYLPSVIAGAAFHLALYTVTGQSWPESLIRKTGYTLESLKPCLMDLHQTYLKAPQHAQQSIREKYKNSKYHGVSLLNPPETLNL

[5] = target: Protein kinase C alpha type (Homo sapiens) (UniProt P17252); experiment: Inhibition of PKCalpha (unknown origin) at 50 nM by Z'LYTE screening method relative to control
[6] = target: Protein kinase C beta type (Homo sapiens) (UniProt P05771); experiment: Inhibition of PKCbeta1 (unknown origin) at 50 nM by Z'LYTE screening method relative to control
Protein kinase C beta type (Homo sapiens), sequence (P05771 2-671 limits assumed): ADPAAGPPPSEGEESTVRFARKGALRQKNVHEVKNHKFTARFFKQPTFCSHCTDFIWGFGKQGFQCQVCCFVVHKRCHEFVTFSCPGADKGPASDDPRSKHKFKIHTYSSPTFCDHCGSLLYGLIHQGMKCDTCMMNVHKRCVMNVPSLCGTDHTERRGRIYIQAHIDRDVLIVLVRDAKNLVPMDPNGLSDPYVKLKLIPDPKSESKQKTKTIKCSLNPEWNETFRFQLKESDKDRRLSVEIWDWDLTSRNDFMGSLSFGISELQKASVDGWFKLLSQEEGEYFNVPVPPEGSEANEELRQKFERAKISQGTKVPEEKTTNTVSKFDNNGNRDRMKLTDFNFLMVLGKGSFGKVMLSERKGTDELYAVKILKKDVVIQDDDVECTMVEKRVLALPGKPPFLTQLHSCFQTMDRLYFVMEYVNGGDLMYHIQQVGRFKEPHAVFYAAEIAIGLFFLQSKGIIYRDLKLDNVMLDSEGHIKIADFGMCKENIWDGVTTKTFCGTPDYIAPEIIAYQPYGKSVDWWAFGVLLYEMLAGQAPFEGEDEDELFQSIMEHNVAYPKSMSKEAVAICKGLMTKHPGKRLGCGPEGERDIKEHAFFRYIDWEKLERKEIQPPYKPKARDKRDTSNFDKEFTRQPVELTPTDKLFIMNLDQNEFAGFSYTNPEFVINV

[7] = target: Fibroblast growth factor receptor 1 (Homo sapiens) (UniProt P11362); experiment: Inhibition of FGFR1 (unknown origin) at 50 nM by Z'LYTE screening method relative to control
Fibroblast growth factor receptor 1 (Homo sapiens), sequence (P11362 22-822 limits assumed): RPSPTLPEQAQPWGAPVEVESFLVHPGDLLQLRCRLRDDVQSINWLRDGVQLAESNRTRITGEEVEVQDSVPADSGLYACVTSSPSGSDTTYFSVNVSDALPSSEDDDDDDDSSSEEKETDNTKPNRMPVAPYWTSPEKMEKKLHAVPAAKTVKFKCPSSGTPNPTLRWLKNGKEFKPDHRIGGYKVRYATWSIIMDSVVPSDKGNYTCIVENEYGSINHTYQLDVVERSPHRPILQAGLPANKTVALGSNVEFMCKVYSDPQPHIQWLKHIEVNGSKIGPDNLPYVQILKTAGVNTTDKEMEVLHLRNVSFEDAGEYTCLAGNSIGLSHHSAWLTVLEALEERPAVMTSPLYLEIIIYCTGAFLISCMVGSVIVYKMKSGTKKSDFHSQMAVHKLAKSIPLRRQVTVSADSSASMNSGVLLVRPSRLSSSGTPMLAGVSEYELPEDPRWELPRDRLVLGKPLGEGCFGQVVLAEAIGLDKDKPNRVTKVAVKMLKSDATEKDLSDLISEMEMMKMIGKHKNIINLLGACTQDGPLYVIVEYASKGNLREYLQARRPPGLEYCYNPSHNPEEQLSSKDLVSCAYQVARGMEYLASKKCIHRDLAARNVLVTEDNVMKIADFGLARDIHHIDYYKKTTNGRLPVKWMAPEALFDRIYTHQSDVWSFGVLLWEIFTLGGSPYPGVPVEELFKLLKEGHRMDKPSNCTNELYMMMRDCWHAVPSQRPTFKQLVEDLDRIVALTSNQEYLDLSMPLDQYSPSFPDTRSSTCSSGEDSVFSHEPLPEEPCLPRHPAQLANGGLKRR

[8] = target: Ribosomal protein S6 kinase alpha-1 (Homo sapiens) (UniProt Q15418); experiment: Inhibition of RPS6KA1 (unknown origin) at 50 nM by Z'LYTE screening method relative to control
Ribosomal protein S6 kinase alpha-1 (Homo sapiens), sequence (Q15418 whole entry): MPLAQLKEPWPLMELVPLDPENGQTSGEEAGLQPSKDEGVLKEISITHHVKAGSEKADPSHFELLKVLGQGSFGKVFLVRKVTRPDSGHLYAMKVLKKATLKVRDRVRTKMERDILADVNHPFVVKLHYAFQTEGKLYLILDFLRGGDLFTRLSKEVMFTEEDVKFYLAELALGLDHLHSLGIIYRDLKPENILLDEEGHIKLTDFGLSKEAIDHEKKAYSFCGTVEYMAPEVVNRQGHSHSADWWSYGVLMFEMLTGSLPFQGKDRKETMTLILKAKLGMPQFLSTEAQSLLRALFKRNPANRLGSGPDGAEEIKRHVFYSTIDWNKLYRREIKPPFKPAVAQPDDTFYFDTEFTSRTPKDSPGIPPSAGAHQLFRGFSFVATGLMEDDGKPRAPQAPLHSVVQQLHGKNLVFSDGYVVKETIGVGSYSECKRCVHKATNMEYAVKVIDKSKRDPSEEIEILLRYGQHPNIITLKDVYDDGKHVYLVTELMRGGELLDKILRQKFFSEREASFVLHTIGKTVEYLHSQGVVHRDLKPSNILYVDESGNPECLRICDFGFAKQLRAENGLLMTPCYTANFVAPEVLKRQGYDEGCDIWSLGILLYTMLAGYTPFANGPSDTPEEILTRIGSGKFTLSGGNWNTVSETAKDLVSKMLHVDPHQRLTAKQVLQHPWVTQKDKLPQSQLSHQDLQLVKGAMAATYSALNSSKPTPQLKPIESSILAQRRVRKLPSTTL

[9] = target: T2, Aurora kinase C (Homo sapiens) (UniProt Q9UQB9); experiment: Inhibition of AURC (unknown origin) at 50 nM by Z'LYTE screening method relative to control
T2 sequence (whole entry): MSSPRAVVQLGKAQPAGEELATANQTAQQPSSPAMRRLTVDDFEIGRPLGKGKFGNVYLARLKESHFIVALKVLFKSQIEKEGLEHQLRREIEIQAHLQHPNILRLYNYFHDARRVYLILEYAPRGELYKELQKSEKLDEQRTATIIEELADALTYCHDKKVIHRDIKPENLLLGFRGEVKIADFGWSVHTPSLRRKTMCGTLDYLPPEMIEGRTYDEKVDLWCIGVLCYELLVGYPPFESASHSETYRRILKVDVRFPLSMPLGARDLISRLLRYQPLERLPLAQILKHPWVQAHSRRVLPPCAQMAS

[10] = target: Tyrosine-protein kinase Lck (Homo sapiens) (UniProt P06239); experiment: Inhibition of LCK (unknown origin) at 50 nM by Z'LYTE screening method relative to control
Tyrosine-protein kinase Lck (Homo sapiens), sequence (P06239 2-509 limits assumed): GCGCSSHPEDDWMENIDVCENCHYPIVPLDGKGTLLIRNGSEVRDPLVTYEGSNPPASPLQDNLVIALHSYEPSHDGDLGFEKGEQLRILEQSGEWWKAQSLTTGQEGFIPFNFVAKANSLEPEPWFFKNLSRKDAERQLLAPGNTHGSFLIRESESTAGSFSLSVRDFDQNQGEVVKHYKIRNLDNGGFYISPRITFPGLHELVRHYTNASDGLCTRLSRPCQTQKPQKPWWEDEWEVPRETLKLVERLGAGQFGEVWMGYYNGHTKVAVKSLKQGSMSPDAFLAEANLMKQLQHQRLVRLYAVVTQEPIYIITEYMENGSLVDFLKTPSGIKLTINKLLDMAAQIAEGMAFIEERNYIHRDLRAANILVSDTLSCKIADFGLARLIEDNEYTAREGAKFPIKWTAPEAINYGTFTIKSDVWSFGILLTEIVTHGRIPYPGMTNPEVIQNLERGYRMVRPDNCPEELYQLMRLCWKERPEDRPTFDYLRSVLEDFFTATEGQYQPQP

[11] = target: Glycogen synthase kinase-3 beta (Homo sapiens) (UniProt P49841); experiment: Inhibition of GSK3b (unknown origin) at 50 nM by Z'LYTE screening method relative to control
[12] = target: cAMP-dependent protein kinase (PKA) (Homo sapiens) (UniProt P22694+P17612+P22612); experiment: Inhibition of PKA (unknown origin) at 50 nM by Z'LYTE screening method relative to control; type: protein assay
[13] = target: T3, Serine/threonine-protein kinase Chk1 (Homo sapiens) (UniProt O14757); experiment: Inhibition of CHK1 (unknown origin) at 50 nM by Z'LYTE screening method relative to control
T3 sequence (whole entry): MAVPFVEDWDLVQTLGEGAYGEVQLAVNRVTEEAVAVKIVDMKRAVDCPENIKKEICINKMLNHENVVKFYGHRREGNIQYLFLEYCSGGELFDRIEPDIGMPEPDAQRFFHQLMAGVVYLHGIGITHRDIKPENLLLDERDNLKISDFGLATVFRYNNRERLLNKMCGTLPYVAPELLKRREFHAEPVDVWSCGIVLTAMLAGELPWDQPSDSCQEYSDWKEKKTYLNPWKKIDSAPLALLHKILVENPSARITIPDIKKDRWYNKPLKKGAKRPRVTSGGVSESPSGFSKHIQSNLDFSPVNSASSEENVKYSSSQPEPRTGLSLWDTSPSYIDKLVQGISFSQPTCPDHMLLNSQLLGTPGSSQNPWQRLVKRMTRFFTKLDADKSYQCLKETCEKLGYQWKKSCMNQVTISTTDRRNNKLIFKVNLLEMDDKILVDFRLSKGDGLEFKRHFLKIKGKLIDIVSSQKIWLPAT

[14] = target: Cyclin-dependent kinase 5/CDK5 activator 1 (Homo sapiens) (UniProt Q00535+Q15078); experiment: Inhibition of CDK5/p25 (unknown origin) at 50 nM by Z'LYTE screening method relative to control; type: protein-complex assay
Cyclin-dependent kinase 5/CDK5 activator 1 (Homo sapiens), sequence (Q00535 whole entry): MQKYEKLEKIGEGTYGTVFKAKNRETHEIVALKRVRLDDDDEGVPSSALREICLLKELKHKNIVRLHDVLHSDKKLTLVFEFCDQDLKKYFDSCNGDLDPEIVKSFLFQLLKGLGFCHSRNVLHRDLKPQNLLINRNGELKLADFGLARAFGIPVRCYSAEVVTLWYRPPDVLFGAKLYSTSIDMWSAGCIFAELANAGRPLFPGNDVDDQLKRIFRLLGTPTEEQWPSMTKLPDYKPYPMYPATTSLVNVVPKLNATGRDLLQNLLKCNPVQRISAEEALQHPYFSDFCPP
Cyclin-dependent kinase 5/CDK5 activator 1 (Homo sapiens), sequence (Q15078 99-307 partner limits assumed): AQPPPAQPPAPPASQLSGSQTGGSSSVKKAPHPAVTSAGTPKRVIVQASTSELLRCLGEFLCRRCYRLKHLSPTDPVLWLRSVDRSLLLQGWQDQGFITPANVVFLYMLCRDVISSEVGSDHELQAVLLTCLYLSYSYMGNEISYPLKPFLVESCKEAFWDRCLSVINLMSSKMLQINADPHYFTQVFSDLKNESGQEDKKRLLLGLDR

Row | SMILES | inhibition (Homo sapiens) [%] | inhibition [1] [%] | inhibition [2] [%] | inhibition [3] [%] | inhibition [4] [%] | inhibition [5] [%] | inhibition [6] [%] | inhibition [7] [%] | inhibition [8] [%] | inhibition [9] [%] | inhibition [10] [%] | inhibition [11] [%] | inhibition [12] [%] | inhibition [13] [%] | inhibition [14] [%] | pIC50 (MDA-MB-231)
1 | CCCNc1nc(-n2[se]c3ccccc3c2=O)nc2[nH]cnc12 | 1 | 0 | 1 | 0 | 2 | 17 | 2 | 0 | 0 | 6 |  |  |  |  |  | 4.63
2 | O=C1c2ccccc2CN1c1nc(N[C@H]2CC[Se]C2)c2nc[nH]c2n1 | 0 | 1 | 0 | 1 | 1 | 3 | 7 | 0 | 0 | 13 |  |  |  |  |  | 4.58
3 | O=c1c2ccccc2[se]n1-c1nc(NC2CCCCC2)c2nc[nH]c2n1 | 0 | 5 | 1 | 0 | 3 | 68 | 59 | 0 | 2 | 13 | 13 | 10 | 22 | 0 | 4 | 4.99
4 | O=c1c2ccccc2[se]n1-c1nc(N[C@H]2CC[Se]C2)c2nc[nH]c2n1 | 0 | 7 | 0 | 0 | 0 | 100 | 95 | 0 | 5 | 0 | 2 | 29 | 53 | 4 | 8 | 5.92
5 | O=C1c2ccccc2CN1c1nc(NC2CCCCC2)c2nc[nH]c2n1 | 0 | 6 | 1 | 0 | 2 | 14 | 5 | 0 | 2 | 9 | 7 | 7 | 12 | 0 | 0 | 4.44
6 | O=c1c2ccccc2[se]n1-c1nc(N[C@H]2CCOC2)c2nc[nH]c2n1 | 1 | 0 | 1 | 0 | 1 | 91 | 84 | 0 | 5 | 1 |  |  |  |  |  | 5.64

Second part, led by results:

Row | inhibition (Homo sapiens) [%] | inhibition [1] [%] | inhibition [2] [%] | inhibition [3] [%] | inhibition [4] [%] | inhibition [5] [%] | inhibition [6] [%] | inhibition [7] [%] | inhibition [8] [%] | inhibition [9] [%] | inhibition [10] [%] | inhibition [11] [%] | inhibition [12] [%] | inhibition [13] [%] | inhibition [14] [%] | SMILES | pIC50 (MDA-MB-231)
7 | 0 | 1 | 2 | 0 | 0 | 0 | 0 | 0 | 1 | 1 |  |  |  |  |  | O=C1c2ccccc2CN1c1nc(NC2CCCC2)c2nc[nH]c2n1 | 4.61
8 | 1 | 0 | 0 | 0 | 1 | 3 | 5 | 0 | 0 | 10 |  |  |  |  |  | CCN(CC)CCCC(C)Nc1nc(N2Cc3ccccc3C2=O)nc2[nH]cnc12 (configuration not stated) | 4.66
9 | 0 | 3 | 1 | 0 | 2 | 18 | 6 | 0 | 0 | 6 |  |  |  |  |  | O=c1c2ccccc2[se]n1-c1nc(Nc2ccccc2)c2nc[nH]c2n1 | 4.49
10 | 0 | 2 | 0 | 0 | 1 | 8 | 0 | 0 | 0 | 9 |  |  |  |  |  | O=c1c2ccccc2[se]n1-c1nc(N[C@@H]2C[C@H]3CC[C@@H]2C3)c2nc[nH]c2n1 | 4.49
11 | 1 | 1 | 1 | 0 | 2 | 10 | 5 | 0 | 0 | 11 |  |  |  |  |  | C[C@@H]1[C@H]2C[C@@H](C[C@H]1Nc1nc(-n3[se]c4ccccc4c3=O)nc3[nH]cnc13)C2(C)C | 4.32
12 | 0 | 4 | 2 | 1 | 3 | 18 | 8 | 0 | 0 | 7 |  |  |  |  |  | CCN(CC)CCCC(C)Nc1nc(-n2[se]c3ccccc3c2=O)nc2[nH]cnc12 (configuration not stated) | 4.77
